The source of these data is patent US11723908B2, “Quinazoline derivatives as antitumor agents” (SUZHOU ZANRONG PHARMA LIMITED, priority 2018, dated 2023).

For data set [1] the following is noted: literature values; cited from earlier work.
For data set [2], the system named is Pgp. The settings on record: literature statement; cited from earlier work.
For data set [3], the target named is HER2 (Homo sapiens (Human), UniProt P04626). Put plainly: BT474 cellular assay (HER2 inhibition), phospho-HER2 ELISA. Format: cell-based. The settings on record: inhibition of phosphor HER2, BT474 cells, 2 hours compound incubation. The gist of the method:
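BT474 cells seeded and grown 24 h, then exposed to compound for 2 h at 37 °C and lysed. Lysates assayed for phospho-HER2 by sandwich ELISA with TMB detection, absorbance read at 450 and 570 nm; IC50 values derived.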
On the technique in general: In an ELISA, binding on a coated surface is turned into a signal by an enzyme label.

The target in data set [4] is wt-EGFR (Homo sapiens (Human), UniProt P00533). As to the kind of experiment: NCI H838 cellular assay (wt-EGFR inhibition), phospho-EGFR ELISA. It is filed as cell-based. Here is the method:
Assay b) NCI H838 Cellular Assay (Wt-EGFR Inhibition) Inhibition of phosphor wt-EGFR was determined by enzyme-linked immunosorbent assay (ELISA) in NCI H838 cells (ATCC, catalog number CRL-5844). Human Phospho-EGFR DuoSet IC ELISA kit was purchased from R&D systems (catalog number DYC1095). Day 1: When the cells reach 70-90% confluence, cells were trypsinized and re-suspended. 5000 cells per well were seeded to a 384-well plate. The plate was incubated at 37° C. with 5% CO2 for 24 hours. Day 2: Cell culture medium was replaced with 40 μL FBS-Free RPMI1640. After 2 hours of starvation, the 384-well plate was dosed with 40 nL of compounds by Echo from source plate and the 384-well plate was incubated at 37° C. with 5% CO2 for 2 hours. After 2 hours of incubation with compounds, EGF (final concentration at 100 ng/ml) was added to the plate which was incubated at 37° C. with 5% CO2 for 5-10 minutes. Medium was discarded from the plate and 30 μl/well lysis buffer was added to the plate which was incubated at 4° C. for 10 minutes. The cell lysates can be stored at −80° C. in cell plates but must be thawed at room temperature for at least 30 minutes prior to use and continuing the assay. ELISA plate was coated by diluting capture antibody to 4 μg/ml with PBS, and 25 μl/well was dispensed to 384 well UltraCruz® ELISA Plate, which was incubated at 4° C. overnight. Day 3: After the plates were washed three times with 100 μl/well of wash buffer, the plates were blocked by adding 75 μl of Block Buffer to each well and incubated at room temperature for 3 hours. After the plates were washed three times with 100 μl/well of wash buffer, 20 μl cell lysate was transferred to the blocked ELISA plate which was incubated for 2 hours at room temperature. After the plates were washed three times with 100 μl/well of wash buffer, 25 μl/well detection antibody (dilute 1 in 900 in assay buffer) was added the plate which was incubated for 2 hours, protected from light. After washed three times, 25 μl/well TMB substrate was added to the ELISA plate which was incubated for about 10-15 min, protected from light before addition of 25 μl/well stop solution. Absorbance was read at 450 nm and 570 nm within 30 minutes.

Data set [5] addresses P-glycoprotein (Pgp) (Homo sapiens (Human), UniProt P08183). Put plainly: MDCK-MDR1 Pgp assessment. It is filed as in vitro ADME. The settings on record: for Pgp substrate status: conclusion from Table 3; for efflux ratio at 2 h, 1 μM: dog, MDCK-MDR1 cells, 37° C. for 2 hours, read-out: PgpER. Here is the method:
Assay c): MDCK-MDR1 Pgp Assessment
Efflux transport mediated by P-glycoprotein (Pgp) was assessed by MDCK-MDR1 cells. The final concentrations of test compounds and control compound were at 1 μM. The multi-well insert plate was incubated at 37° C. for 2 hours.

Data set [6] concerns the target BCRP (Homo sapiens (Human), UniProt Q9UNQ0). Put plainly: Caco-2 BCRP assessment. Format: in vitro ADME. The conditions noted are these: for BCRP ER: Caco-2 cells, 1 μM, efflux ratio -/+ novobiocin 30 μM, >2 = BCRP substrate; for BCRP substrate status: conclusion from Table 3. The protocol: Assay d): Caco-2 BCRP Assessment
Caco-2 cells were used to study efflux transport mediated by BCRP. Rate of drug transport by BCRP was determined in the presence and absence of novobiocin, a strong inhibitor of BCRP, which was added to both apical and basolateral compartment sat a final concentration of 30 μM. The final concentrations of test compounds and control compound were at 1 μM. The multi-well insert plate was incubated at 37° C. for 2 hours. Efflux ratio (−inhibitor/+inhibitor)>2 was considered to be a BCRP substrate.
In general terms: Passage across Caco-2 layers is used to estimate intestinal permeability.

Data set [7] is described as follows: Mouse SOA study for brain penetration. Format: in vivo. The conditions noted are these: for Kp: male, balb/c, mouse, brain, po, 10 mg/kg, read-out: Mouse Kpu, u; for brain penetration in vivo: mouse SOA study, conclusion from Table 3. Here is the method:
Assay e) Mouse SOA Study for Brain Penetration
Six non-fasted male balb/c mice (6-8 weeks, 20-25 g) were orally administered at 10 mg/kg, using a suspension formulation of 1% methylcellulose (MC) in deionized water. Brain and blood samples were collected at 0.25, 0.5, 1, 2, 4, 7 hours after dose. Plasma was obtained by centrifuging the blood samples for 5 min at 4000 g and 4° C. Brain tissue was homogenized following addition of four times the volume of phosphate-buffered saline (pH 7.4). Quantification of the compound in plasma and brain was undertaken by LC-MS/MS. Area under the curve (AUC) was determined from 0 to 7 hours in the brain tissue and plasma.
Total brain to plasma concentration ratio Kp was determined using the equation: Brain Kp=AUC0-7 hr brain/AUC0-7 hr plasma
Unbound brain to plasma ratio was determined using the equation: Brain Kp,uu=Kp*fu,brain/fu,plasma
Unbound fraction (fu, plasma) and unbound fraction (fu, brain) were obtained from in vitro equilibrium dialysis by using plasma and brain homogenate, respectively.

Data set [8] has as its target hERG channel (Homo sapiens (Human), UniProt Q12809). As to the kind of experiment: hERG inhibition, manual patch clamp in HEK 293 cells. It is filed as cell-based. The settings on record: for IC50: HEK 293 cell line stably expressing hERG channel, manual patch clamp; for hERG liability: conclusion from Table 3. The protocol:
Assay f): hERG Inhibition Inhibition of hERG channel was conducted in HEK 293 cell line stably expressing hERG channel by manual patch clamp.
On the technique in general: Block of hERG is tested as a sign of cardiac risk.

In general, IC50 refers to the concentration at which inhibition is half-maximal.

Like-named read-outs stand apart in the source and are kept apart here.

Chain of BCRP (Q9UNQ0 whole entry): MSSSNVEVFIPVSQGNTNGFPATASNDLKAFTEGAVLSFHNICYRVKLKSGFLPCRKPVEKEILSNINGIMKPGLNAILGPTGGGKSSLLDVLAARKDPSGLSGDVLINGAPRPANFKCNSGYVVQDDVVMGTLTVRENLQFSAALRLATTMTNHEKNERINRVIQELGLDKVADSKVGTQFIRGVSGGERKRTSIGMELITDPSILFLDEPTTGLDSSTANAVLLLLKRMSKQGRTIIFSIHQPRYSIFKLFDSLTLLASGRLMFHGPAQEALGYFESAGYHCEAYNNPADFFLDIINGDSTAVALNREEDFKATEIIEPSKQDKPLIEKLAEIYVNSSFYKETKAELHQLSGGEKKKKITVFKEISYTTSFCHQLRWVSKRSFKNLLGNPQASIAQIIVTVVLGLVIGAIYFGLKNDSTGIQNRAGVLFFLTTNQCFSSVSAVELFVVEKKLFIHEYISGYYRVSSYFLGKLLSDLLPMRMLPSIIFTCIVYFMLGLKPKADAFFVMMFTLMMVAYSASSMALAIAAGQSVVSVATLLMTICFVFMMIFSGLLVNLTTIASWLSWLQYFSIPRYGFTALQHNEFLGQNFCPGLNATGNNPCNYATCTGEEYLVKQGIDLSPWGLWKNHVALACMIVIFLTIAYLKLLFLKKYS
Chain of P-glycoprotein (Pgp) (P08183 whole entry): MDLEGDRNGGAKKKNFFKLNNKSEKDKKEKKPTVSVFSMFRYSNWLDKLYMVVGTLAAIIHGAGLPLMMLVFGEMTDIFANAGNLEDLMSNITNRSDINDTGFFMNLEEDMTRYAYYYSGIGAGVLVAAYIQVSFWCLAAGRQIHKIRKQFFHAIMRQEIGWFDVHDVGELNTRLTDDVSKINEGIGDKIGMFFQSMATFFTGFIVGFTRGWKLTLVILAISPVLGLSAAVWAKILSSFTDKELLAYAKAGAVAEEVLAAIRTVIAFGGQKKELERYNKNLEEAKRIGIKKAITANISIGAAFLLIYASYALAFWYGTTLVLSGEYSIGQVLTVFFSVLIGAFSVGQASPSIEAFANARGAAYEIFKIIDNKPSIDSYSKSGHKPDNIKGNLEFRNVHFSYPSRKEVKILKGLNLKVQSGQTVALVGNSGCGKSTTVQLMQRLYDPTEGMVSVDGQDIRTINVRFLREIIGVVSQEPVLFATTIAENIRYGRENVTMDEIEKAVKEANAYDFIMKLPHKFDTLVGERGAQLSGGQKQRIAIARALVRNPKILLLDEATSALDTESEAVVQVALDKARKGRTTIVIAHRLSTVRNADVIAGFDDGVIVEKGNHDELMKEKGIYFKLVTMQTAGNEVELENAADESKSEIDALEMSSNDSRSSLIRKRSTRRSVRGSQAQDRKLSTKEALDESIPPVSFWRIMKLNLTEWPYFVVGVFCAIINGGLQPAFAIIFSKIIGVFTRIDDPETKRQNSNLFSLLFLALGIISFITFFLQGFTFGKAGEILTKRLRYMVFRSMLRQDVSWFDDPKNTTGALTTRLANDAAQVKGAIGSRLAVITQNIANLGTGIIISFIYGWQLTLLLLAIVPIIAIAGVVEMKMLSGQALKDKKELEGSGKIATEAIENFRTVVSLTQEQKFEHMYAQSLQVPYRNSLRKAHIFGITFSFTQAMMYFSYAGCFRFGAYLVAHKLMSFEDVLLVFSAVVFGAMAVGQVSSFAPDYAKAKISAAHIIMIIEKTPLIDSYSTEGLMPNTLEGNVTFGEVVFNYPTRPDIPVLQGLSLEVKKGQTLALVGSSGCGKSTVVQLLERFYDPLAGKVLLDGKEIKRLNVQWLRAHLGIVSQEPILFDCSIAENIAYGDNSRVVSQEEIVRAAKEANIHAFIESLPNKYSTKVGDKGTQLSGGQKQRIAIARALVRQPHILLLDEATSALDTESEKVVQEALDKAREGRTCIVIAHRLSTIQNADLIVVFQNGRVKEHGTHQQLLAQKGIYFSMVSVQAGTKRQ
Chain of hERG channel (Q12809 whole entry): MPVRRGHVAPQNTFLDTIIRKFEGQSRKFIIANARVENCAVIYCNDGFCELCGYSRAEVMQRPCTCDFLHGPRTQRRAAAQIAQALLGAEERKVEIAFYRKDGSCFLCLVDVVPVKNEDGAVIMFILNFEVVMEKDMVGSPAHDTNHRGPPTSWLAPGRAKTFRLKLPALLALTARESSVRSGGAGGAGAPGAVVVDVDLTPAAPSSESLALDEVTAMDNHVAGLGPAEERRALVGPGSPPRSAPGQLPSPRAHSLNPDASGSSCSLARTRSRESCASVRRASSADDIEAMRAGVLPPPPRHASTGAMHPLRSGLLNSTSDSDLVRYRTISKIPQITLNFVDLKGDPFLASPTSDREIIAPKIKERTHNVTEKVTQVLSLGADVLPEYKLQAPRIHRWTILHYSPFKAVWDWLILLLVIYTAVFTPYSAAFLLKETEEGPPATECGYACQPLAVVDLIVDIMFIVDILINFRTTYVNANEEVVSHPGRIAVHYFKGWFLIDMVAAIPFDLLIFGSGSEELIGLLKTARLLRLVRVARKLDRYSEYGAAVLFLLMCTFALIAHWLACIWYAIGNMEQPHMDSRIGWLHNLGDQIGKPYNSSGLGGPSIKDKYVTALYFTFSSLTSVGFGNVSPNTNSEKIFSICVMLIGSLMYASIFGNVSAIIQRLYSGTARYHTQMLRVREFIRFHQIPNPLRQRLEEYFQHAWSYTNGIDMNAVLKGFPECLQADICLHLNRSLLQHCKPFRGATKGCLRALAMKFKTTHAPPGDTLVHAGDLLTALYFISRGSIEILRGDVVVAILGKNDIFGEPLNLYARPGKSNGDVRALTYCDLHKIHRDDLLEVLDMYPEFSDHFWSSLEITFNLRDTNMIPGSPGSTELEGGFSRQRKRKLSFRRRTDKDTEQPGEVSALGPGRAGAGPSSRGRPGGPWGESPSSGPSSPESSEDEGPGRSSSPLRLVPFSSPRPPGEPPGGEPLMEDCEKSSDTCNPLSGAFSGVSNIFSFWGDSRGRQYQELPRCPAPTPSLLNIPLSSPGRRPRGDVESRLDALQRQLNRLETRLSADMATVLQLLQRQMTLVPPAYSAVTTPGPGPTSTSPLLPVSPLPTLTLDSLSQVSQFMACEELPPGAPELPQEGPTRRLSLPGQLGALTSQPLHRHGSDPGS
Chain of wt-EGFR (P00533 25-1210): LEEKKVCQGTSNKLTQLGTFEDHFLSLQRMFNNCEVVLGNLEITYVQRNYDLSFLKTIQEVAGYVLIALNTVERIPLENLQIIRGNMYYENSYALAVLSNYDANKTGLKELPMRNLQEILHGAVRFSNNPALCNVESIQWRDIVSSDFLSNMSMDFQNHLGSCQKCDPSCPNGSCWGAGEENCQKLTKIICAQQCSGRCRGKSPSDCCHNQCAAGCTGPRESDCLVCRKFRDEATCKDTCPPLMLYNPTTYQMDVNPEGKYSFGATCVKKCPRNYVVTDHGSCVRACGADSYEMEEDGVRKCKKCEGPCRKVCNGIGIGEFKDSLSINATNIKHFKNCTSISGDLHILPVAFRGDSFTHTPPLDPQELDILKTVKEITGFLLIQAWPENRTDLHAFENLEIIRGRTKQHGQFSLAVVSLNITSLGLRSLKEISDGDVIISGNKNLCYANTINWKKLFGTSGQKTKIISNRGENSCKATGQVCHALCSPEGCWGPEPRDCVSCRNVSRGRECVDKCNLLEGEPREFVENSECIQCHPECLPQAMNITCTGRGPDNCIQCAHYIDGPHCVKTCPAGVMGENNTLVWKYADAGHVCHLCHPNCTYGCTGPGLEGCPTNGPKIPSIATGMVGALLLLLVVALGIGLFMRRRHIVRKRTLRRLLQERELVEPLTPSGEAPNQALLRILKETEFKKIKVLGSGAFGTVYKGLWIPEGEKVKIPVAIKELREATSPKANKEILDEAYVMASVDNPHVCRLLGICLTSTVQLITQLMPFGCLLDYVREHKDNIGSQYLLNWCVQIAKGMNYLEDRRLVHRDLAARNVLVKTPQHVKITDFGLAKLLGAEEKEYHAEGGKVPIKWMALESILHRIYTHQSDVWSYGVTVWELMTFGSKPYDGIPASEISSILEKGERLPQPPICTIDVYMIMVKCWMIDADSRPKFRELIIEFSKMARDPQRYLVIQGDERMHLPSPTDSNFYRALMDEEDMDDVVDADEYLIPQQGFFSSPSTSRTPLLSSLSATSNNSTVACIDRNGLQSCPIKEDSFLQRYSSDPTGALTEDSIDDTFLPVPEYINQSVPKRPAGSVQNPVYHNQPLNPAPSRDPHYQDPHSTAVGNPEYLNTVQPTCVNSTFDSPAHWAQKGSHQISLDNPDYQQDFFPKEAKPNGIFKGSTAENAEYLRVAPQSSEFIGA

As for `CS(=O)(=O)CCNCc1ccc(-c2ccc3ncnc(Nc4ccc(OCc5cccc(F)c5)c(Cl)c4)c3c2)o1` [lapatinib], the “brain to blood ratio (Kp)” value in data set [1] is on record as 0.04. The Pgp substrate status entry in data set [2] was “strong Pgp substrates”.
Take `CCOc1cc2ncc(C#N)c(Nc3ccc(OCc4ccccn4)c(Cl)c3)c2cc1NC(=O)/C=C/CN(C)C` [neratinib]: the “brain to blood ratio (Kp)” value in data set [1] is reported as 0.079. For the same compound, the Pgp substrate status result in data set [2] is recorded as “strong Pgp substrates”.
For the compound `[2H]C([2H])([2H])Oc1ccc2ncnc(Nc3ccc(Oc4cc5ncnn5cn4)c(C)c3)c2c1O[C@@H]1CCN(C)CC1(F)F` [Example 36, (R)—N-(4-([1,2,4]-triazolo[1,5-c]pyrimidin-7-yloxy)-3-methylphenyl)-5-((3,3-difluoro-1-methylpiperidin-4-yl)oxy)-6-(methoxy-d3)quinazolin-4-amine], the IC50 in data set [3] turned out to be 11 nM. Also, the IC50 in data set [4] amounted to 440 nM. Also, in data set [5], the “Pgp substrate status” value was “not Pgp or BCRP substrates” and the efflux ratio at 2 h, 1 μM was determined as 0.81. In addition, in data set [6], the “BCRP ER” value is 1.8 and the “BCRP substrate status” value is reported as “not Pgp or BCRP substrates”. Moreover, in data set [7], the Kp amounted to 0.19 and the “brain penetration in vivo” value was “brain penetrable”. Moreover, in data set [8], the IC50 was more than 10000 nM and the “hERG liability” value is given as “do not show hERG liability”.
As to `Cc1cc(Nc2ncnc3ccc(NC4=NC(C)(C)CO4)cc23)ccc1Oc1ccn2ncnc2c1` [Tucatinib], the “brain to blood ratio (Kp)” value in data set [1] is recorded as 0.02-0.05. Also, the Pgp substrate status result in data set [2] is given as “strong Pgp substrate”.
For the compound `COc1ccc2ncnc(Nc3ccc(Oc4cc5ncnn5cn4)c(Cl)c3)c2c1O[C@@H]1CCN(C)CC1(F)F` [Example 33, (R)—N-(4-([1,2,4]triazolo[1,5-c]pyrimidin-7-yloxy)-3-chlorophenyl)-5-((3,3-difluoro-1-methylpiperidin-4-yl)oxy)-6-methoxyquinazolin-4-amine], in data set [3], the IC50 was determined as 8 nM. The compound also yielded an IC50 in data set [4] (inhibition of phosphor wt-EGFR, NCI H838 cells, EGF 100 ng/ml) of 400 nM. For the same compound, in data set [5], the “Pgp substrate status” value is “not Pgp or BCRP substrates” and the efflux ratio at 2 h, 1 μM was 0.6. Also, in data set [6], the “BCRP ER” value was found to be 1.3 and the “BCRP substrate status” value is recorded as “not Pgp or BCRP substrates”. In data set [7], the Kp was 0.24 and the “brain penetration in vivo” value is reported as “brain penetrable”. For the same compound, in data set [8], the IC50 came out at 13300 nM and the “hERG liability” value is “do not show hERG liability”.
`CN(C)C/C=C/C(=O)Nc1cc2c(Nc3ccc(F)c(Cl)c3)ncnc2cc1O[C@H]1CCOC1` [afatinib]: the “brain to blood ratio (Kp)” value in data set [1] is less than 0.08. Also, the Pgp substrate status entry in data set [2] was “strong Pgp substrates”.
